Assay results taken from ChEMBL document CHEMBL1201862, “PubChem BioAssay data set” (2004).
Calls of active or inactive are those of the source.

What was measured:
[1] = target: T1, Heat shock factor protein 1 (Mus musculus, UniProt P38532); assay: HSF1 potentiators in luciferase reporter cells, confirmation, cell-based, NIH3T3, luminescence, dose retest (AID 435004); type: functional;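 further: stress induced by proteasome inhibitor MG132 added 30 min after compound; luciferase reporter driven by HSF1 response element in NIH3T3 cells; actives raise luminescence as potentiators of the MG132 stress response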
T1 sequence (P38532 whole entry): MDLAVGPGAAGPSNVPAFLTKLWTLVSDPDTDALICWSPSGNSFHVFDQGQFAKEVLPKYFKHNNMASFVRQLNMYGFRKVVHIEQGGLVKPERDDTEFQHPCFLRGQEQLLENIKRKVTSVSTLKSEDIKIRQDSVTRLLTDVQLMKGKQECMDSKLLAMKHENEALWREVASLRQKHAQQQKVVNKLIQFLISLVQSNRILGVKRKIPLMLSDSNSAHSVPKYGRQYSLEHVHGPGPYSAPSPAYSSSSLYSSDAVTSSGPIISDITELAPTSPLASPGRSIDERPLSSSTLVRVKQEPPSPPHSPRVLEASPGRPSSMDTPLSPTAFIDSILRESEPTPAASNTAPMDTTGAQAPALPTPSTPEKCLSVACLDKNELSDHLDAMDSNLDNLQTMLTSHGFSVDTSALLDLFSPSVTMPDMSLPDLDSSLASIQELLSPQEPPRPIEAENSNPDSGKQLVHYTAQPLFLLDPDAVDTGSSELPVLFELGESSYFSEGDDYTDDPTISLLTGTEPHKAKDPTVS

Cytochrome P450 2D6 = Cytochrome P450 2D6 (Homo sapiens, UniProt P10635);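 further: CYP2D6 member of a cytochrome P450 panel assay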
Cytochrome P450 2D6, sequence (P10635 whole entry, the tested form may be a part): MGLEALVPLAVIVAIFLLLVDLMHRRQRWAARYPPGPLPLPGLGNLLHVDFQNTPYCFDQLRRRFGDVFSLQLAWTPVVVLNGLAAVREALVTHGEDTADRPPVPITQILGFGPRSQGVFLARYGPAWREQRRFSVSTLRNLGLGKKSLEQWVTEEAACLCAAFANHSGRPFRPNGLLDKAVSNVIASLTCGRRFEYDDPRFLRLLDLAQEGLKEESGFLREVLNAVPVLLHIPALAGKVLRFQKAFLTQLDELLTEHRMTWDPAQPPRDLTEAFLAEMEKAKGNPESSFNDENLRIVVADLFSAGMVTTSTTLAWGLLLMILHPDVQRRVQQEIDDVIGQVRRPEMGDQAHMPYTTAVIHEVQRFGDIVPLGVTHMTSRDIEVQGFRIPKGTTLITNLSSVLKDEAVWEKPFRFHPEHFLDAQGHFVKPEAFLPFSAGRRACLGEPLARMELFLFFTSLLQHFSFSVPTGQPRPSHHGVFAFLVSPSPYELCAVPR

[2] = target: T2, RNA-binding protein pos-1 (Caenorhabditis elegans, UniProt G5EF15); assay: inhibitors of POS-1/mex-3 RNA binding, dose response, biochemical, fluorescence polarization (AID 1964);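 further: purified POS-1 fused to maltose binding protein made in E. coli; potency of compounds blocking POS-1 binding to fluorescent RNA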
T2 sequence (G5EF15 whole entry): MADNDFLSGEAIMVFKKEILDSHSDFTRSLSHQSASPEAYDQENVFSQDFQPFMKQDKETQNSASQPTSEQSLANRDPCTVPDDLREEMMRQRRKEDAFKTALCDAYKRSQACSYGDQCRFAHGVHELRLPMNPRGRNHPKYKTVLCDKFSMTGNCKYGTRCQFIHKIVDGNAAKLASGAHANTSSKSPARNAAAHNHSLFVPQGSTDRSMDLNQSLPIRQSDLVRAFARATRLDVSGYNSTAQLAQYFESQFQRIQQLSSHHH

[3] = target: T3, Zinc finger protein mex-5 (Caenorhabditis elegans, UniProt Q9XUB2); assay: MEX-5/TCR-2 RNA interaction inhibitors, dose response, biochemical, C. elegans, fluorescence polarization (AID 1960)
T3 sequence (Q9XUB2 whole entry): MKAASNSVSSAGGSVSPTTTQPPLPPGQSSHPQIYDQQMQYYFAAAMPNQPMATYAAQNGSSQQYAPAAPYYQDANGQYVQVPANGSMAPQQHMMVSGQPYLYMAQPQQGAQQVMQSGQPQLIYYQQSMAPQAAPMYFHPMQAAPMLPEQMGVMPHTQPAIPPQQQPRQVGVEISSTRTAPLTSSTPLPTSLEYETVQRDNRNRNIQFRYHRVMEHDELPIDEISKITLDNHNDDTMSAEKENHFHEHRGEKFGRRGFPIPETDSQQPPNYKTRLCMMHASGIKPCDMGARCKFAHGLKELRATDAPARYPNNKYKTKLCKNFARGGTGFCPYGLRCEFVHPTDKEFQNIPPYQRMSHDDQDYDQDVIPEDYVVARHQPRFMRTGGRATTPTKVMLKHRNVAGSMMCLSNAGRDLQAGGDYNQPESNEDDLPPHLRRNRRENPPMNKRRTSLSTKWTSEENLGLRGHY

Cytochrome P450 2C19 = Cytochrome P450 2C19 (Homo sapiens, UniProt P33261); assay: Cytochrome panel assay with activity outcomes. Panel member name: p450-cyp2c19 Compounds with AC50 equal or less than 10 uM are considered active; type: functional; details: read-out: AC50
Cytochrome P450 2C19, sequence (P33261 whole entry): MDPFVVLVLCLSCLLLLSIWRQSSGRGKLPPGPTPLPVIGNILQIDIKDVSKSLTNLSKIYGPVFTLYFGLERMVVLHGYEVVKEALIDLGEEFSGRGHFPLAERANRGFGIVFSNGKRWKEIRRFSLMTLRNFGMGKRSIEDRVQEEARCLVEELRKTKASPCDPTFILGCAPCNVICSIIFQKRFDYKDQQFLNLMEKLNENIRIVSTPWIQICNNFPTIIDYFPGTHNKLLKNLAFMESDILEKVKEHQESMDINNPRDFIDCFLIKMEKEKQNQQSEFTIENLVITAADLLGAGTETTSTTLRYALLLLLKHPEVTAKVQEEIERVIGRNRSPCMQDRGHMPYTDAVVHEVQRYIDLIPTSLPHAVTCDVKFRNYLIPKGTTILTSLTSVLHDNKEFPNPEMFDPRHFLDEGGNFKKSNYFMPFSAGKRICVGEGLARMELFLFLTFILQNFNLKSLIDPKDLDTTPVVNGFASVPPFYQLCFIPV

Cytochrome P450 1A2 = target: T4, Cytochrome P450 1A2 (Homo sapiens, UniProt P05177);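 further: PubChem cytochrome P450 panel assay, CYP1A2 panel member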
T4 sequence (P05177 whole entry): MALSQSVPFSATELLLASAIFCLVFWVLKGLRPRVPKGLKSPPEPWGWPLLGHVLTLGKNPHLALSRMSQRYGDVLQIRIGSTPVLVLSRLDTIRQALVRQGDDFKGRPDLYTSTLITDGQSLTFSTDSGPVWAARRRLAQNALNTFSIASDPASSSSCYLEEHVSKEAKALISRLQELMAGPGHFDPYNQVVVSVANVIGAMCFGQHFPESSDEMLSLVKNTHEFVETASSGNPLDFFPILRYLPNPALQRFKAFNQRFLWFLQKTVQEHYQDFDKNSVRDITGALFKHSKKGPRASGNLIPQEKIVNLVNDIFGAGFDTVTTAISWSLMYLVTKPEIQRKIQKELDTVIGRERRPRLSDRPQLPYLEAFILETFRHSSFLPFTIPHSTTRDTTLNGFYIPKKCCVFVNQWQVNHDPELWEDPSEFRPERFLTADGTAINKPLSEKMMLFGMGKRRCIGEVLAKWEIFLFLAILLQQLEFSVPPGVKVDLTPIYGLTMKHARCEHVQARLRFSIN

[4] = system: Streptococcus sp. 'group A'; assay: growth inhibition of control SK(-) GAS strain, dose response, counter-screen for streptokinase expression inhibitor project, luminescence, kanamycin, BacTiterGlo, confirmation (AID 1900); type: functional, organism-based
Streptokinase A = target: T5, Streptokinase A (Streptococcus pyogenes serotype M1, UniProt P10520); assay: S. pyogenes streptokinase expression inhibitors, potency, dose response, plasminogen activation absorbance, OD405 (AID 1914); type: functional, Streptococcus pyogenes M1 GAS;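 further: secreted streptokinase activity via plasminogen activation per viability signal from cell pellet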
T5 sequence (P10520 whole entry): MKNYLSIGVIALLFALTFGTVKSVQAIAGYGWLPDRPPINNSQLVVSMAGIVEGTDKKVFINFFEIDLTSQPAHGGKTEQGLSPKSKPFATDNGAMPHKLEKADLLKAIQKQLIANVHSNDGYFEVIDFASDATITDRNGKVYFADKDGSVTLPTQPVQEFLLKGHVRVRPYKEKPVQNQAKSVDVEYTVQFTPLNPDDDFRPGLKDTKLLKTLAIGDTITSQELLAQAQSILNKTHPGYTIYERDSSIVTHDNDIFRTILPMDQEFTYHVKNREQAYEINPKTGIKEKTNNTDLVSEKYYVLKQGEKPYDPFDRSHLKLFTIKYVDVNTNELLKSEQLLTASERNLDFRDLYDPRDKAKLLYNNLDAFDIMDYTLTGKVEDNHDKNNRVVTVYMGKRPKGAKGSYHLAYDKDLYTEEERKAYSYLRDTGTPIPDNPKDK

[5] = inhibitors of intracellular T. cruzi replication, confirmation, NIH3T3 host cells, beta-gal luminescence (AID 2044); type: functional, cell-based;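 further: intracellular parasites grown in NIH/3T3 mouse fibroblasts as host cells; luminescent beta-galactosidase reporter signal from transgenic T. cruzi replicating inside host cells; inhibitors lower the luminescence signal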
[6] = cytotoxicity toward NIH3T3 fibroblasts, dose response, counter-screen, cell-based, ATP luminescence, mouse fibroblasts (AID 2010); type: functional;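 further: cells exposed to compound for about 90 hours before reading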
Streptococcus = assay: Group A Streptococcus viability loss, dose response, counter-screen for streptokinase expression inhibitor project, luminescence, BacTiterGlo (AID 1915); type: functional, organism-based;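 further: potency for reduction of bacterial viability or growth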

## Cc1ccc(CC2S/C(=N\c3ccccc3)N(c3ccccc3)C2=O)cc1 (configuration not stated)
[1]
  EC50: > 260 µM (inactive)

## Cc1cnc(CNc2ncnc3ccc(-c4ccccc4C)cc23)cn1
Cytochrome P450 2D6
  AC50: 20 µM (inconclusive)

## NC(=O)[C@@H]1CCCN1Cc1c(C(=O)N2CCc3ccccc3C2)nc2ccc(Cl)cn12
[2]
  EC50: 61.7 µM (active)
[3]
  EC50: 47 µM (active)

## Cc1nc2ccccc2c2oc(C(=O)Nc3ccc4c(c3)OCCO4)cc12
[2]
  EC50: 16.6 µM (active)
[3]
  EC50: 25.9 µM (inconclusive)

## COc1ccc(CN(CC2CCC(C(=O)O)CC2)C(S)=Nc2cc(Cl)ccc2OC)cc1 (configuration not stated)
[1]
  EC50: > 260 µM (inactive)

## O=C1NC(=O)N(c2ccc(Br)cc2)C(=O)/C1=C/NCCN1CCCCC1
[2]
  EC50: > 300 µM (not active)
[3]
  EC50: 106 µM (active)

## COC(=O)c1ccc(C23CC2(C(NP(=O)(c2ccccc2)c2ccccc2)c2ccccc2)C3)cc1 (configuration not stated)
Cytochrome P450 2D6
  AC50: 31.6 µM (inconclusive)

## CCCn1c(=N)c(C(=O)NCC2CCCO2)cc2c(=O)n3cccc(C)c3nc21 (configuration not stated)
[2]
  EC50: > 300 µM (not active)
[3]
  EC50: > 300 µM (not active)

## CCCCCCCCCCCCCC(=O)O[C@H](CC(=O)[O-])C[N+](C)(C)C
Cytochrome P450 2D6
  AC50: 31.6 µM (inconclusive)

## COc1ccc(S(=O)(=O)n2nc(OC(=O)c3ccccc3Br)cc2N)cc1
[1]
  EC50: 18.2 µM (active)

## CC(C)(C)NC(=O)c1ccc2c3c(cccc13)CC2
[1]
  EC50: > 260 µM (inactive)

## COc1cc(C2NC(S)=NC(C)=C2C(=O)OC(C)C)ccc1OC(C)C (configuration not stated)
[2]
  EC50: > 300 µM (not active)
[3]
  EC50: > 300 µM (not active)

## Nc1ccccc1Nc1ccc([N+](=O)[O-])cc1[N+](=O)[O-]
[1]
  EC50: > 260 µM (inactive)

## COC(=O)CCCC1=CC2=CC(=O)C(C)(OC(=O)c3cccs3)C(=O)C2=CO1 (configuration not stated)
[2]
  EC50: 14 µM (active)
[3]
  EC50: 16.5 µM (active)

## OCCOc1ccc(C2=NCCO2)cc1
[2]
  EC50: > 300 µM (not active)
[3]
  EC50: > 300 µM (not active)

## Cn1c(C[C@@H](O)c2nc3ccccc3n2C)nc2ccccc21
Cytochrome P450 2D6
  AC50: 2.51 µM (inconclusive)

## Cc1ccccc1CC(=O)NC1CCCc2ccccc21 (configuration not stated)
[1]
  EC50: > 260 µM (inactive)

## CC(=O)c1cccc(NC(=O)/C(=C\c2ccco2)NC(=O)c2cccs2)c1
Cytochrome P450 2C19
  AC50: 11.2 µM (inconclusive)
Cytochrome P450 2D6
  AC50: 14.1 µM (inconclusive)
Cytochrome P450 1A2
  AC50: 14.1 µM (inconclusive)

## CCCCC#Cc1ccccc1CC(=O)Nc1ccccc1
Cytochrome P450 2D6
  AC50: 12.6 µM (inconclusive)

## COc1cccc(-c2ccc3ncnc(NC4CC4)c3c2)c1
Cytochrome P450 2D6
  AC50: 25.1 µM (inconclusive)

## COc1cc2[nH]c(=S)n(Cc3ccco3)c(=O)c2cc1OC
[1]
  EC50: > 260 µM (inactive)

## O=C(O)CSc1c(-c2ccccc2)[nH]c2ccccc12
[1]
  EC50: > 260 µM (inactive)

## Cc1ccc(/N=C2\SC(C(=O)NCCc3ccccc3)CC(=O)N2C)cc1C (configuration not stated)
[1]
  EC50: > 260 µM (inactive)

## CCOc1ccc(N2CC(=O)C(c3nc(O)c4ccccc4n3)=C2N)cc1
[1]
  EC50: > 260 µM (inactive)

## Cc1cc(=O)nc2c3ccccc3n(CC(=O)Nc3ccccc3Br)n12
[2]
  EC50: > 300 µM (not active)
[3]
  EC50: 103 µM (active)

## Cc1noc(C)c1-c1nccc(NCc2cccnc2)n1
Cytochrome P450 2D6
  AC50: 20 µM (inconclusive)

## O=C(NC1CCCN(Cc2ccccc2F)C1)c1cccs1 (configuration not stated)
[1]
  EC50: > 260 µM (inactive)

## CC(C)(C)c1nc(NC(=O)Nc2ccccc2)sc1Br
[4]
  EC50: 4.45 µM (active)
Streptokinase A
  EC50: > 50 µM (not active)
[5]
  EC50: 4.22 µM (active)
[6]
  EC50: > 60 µM (not active)
Streptococcus
  EC50: 6.77 µM (active)

## CC(=O)N1CCC2(CCN(Cc3ccccc3)CC2)CC1
Cytochrome P450 2D6
  AC50: 15.8 µM (inconclusive)

## Cc1ccc(NC(S)=Nc2nc(CC(=O)Nc3ccccc3)cs2)cc1
Cytochrome P450 2D6
  AC50: 1.78 µM (inconclusive)

## CCOC(=O)c1cc(C#N)c(SCc2ccc(C#N)cc2)nc1C
[1]
  EC50: 41.9 µM (active)

## COc1cc(C2CC(c3cccnc3)=NN2c2ccc(F)cc2)cc(OC)c1OC (configuration not stated)
[1]
  EC50: 48.5 µM (active)

## COC(=O)/C(=C\C(=O)c1ccccc1)Nc1cccc(C(F)(F)F)c1
Cytochrome P450 2D6
  AC50: 25.1 µM (inconclusive)

## Cc1ccc(CN(C(=O)c2ccco2)C2CCS(=O)(=O)C2)cc1 (configuration not stated)
[4]
  EC50: > 150 µM (not active)
Streptokinase A
  EC50: > 150 µM (not active)
Streptococcus
  EC50: > 150 µM (not active)

## CN(C)c1ncc2nc(CCc3ccccc3)c(=O)n(-c3ccccc3)c2n1
Cytochrome P450 2C19
  AC50: 39.8 µM (inconclusive)
Cytochrome P450 2D6
  AC50: 2.51 µM (inconclusive)

## COC(=O)c1c(C)[nH]c(C(=O)OCC(=O)N(CC(C)C)c2c(N)n(Cc3ccccc3)c(=O)[nH]c2=O)c1C
[4]
  EC50: 5.83 µM (active)
Streptokinase A
  EC50: > 150 µM (not active)
Streptococcus
  EC50: > 150 µM (not active)

## CN(CC1CCCO1)S(=O)(=O)c1ccc(C(=O)Nc2ccc(F)cc2)cc1 (configuration not stated)
[4]
  EC50: > 150 µM (not active)
Streptokinase A
  EC50: > 150 µM (not active)
Streptococcus
  EC50: > 150 µM (not active)

## COC(=O)CCC(=O)OC1(C)C(=O)C=C2C=C(c3ccsc3)OC=C2C1=O (configuration not stated)
[2]
  EC50: 36.8 µM (active)
[3]
  EC50: 26.7 µM (inconclusive)

## CC[N+](CC)(CCNC(=O)C(=O)NCC[N+](CC)(CC)Cc1ccccc1Cl)Cc1ccccc1Cl [AMBENONIUM]
Cytochrome P450 2D6
  AC50: 39.8 µM (inconclusive)

## O=C1C(Cl)=C(Nc2ccccc2O)C(=O)N1c1ccccc1
[2]
  EC50: > 300 µM (not active)
[3]
  EC50: 73 µM (inconclusive)

## CCN1/C(=C2/SC(=S)N(NC(C)=O)C2=O)Sc2ccccc21
[2]
  EC50: 60.7 µM (active)
[3]
  EC50: > 300 µM (not active)

## CC1CCN(c2nc(-c3ccccc3)cc(C(F)(F)F)n2)CC1
[4]
  EC50: 3.73 µM (active)
Streptokinase A
  EC50: 9.36 µM (inconclusive)
Streptococcus
  EC50: 9.37 µM (active)

## Cc1ccn2c(C(=O)N/N=C\c3ccccc3[N+](=O)[O-])c(C)nc2c1
[1]
  EC50: > 260 µM (inactive)

## COc1ccc(/C=N/n2c(C)nc3c4ccccc4nc-3c2O)cc1CN1CCCC(C)(C)C1
[4]
  EC50: 10.9 µM (active)
Streptokinase A
  EC50: > 150 µM (not active)
Streptococcus
  EC50: > 150 µM (not active)
